According to patent US20210361577A1, “LIPOPHILIC TRANSPORT PARTICLES FOR COSMETIC OR PHARMACEUTICAL ACTIVE INGREDIENTS” (IOI OLEO GMBH, priority 2018, published 2021):
Read-outs that look alike come from different tables or passages of the source.

Assays:
[1] = active ingredient loading of carrier particles made by spray drying; format: physicochemical; conditions: spray drying process
Description: The carrier particles which are provided fulfil their purpose when they are loaded with an active ingredient, in particular a pharmaceutical active ingredient. This may, for example, be carried out by means of a spray drying process in accordance with claim 22, in which the active ingredient and the PGFE or PGFEs are initially dissolved and/or suspended in a suitable organic solvent and then are separated from the solvent once more by spray drying. Examples of suitable solvents are the ether tetrahydrofuran, the alcohol ethanol, the ketone acetone, the ester ethyl acetate or the alkane heptane. It has been shown that by means of spray drying, loading with a pharmaceutical active ingredient of up to 30% by weight is possible.
Lipophilic carrier particles in accordance with claim 1 can advantageously be loaded with pharmaceutical active ingredients from the group formed by non-steroidal antirheumatic agents.

[2] = contact angle with purified water (hydrophobicity) and its storage stability; format: physicochemical; conditions: after 16 weeks at room temperature (20° C.) and at 40° C.
Description: An advantageous property of the PGFEs for lipophilic carrier particles in accordance with claim 1 which should be considered is the hydrophobicity, which can be determined by determining the contact angle. The determination of the hydrophobicity is carried out by determining the contact angle between the PGFE in the solid physical state and a droplet of purified water. According to Young's equation, cos θ=(γSV−γSL)/γLV, wherein γSL is the interfacial tension between the PGFE and water, γLV is the interfacial tension of the water droplet and γSV is the surface tension between the PGFE and the surrounding air. θ is the contact angle. Thus, the larger the contact angle θ, the higher is the surface tension between the PGFE and the water and the higher is the hydrophobicity of the PGFE under investigation. The contact angles for the proposed polyglycerol fatty acid esters also correlate with the HLB value which is often used in pharmaceutical technology, which is on a scale of 0 to 20 and provides information regarding the ratio of lipophilic to hydrophilic molecular fractions, wherein the hydrophilic fraction increases with increasing HLB value. […]

[3] = cited from earlier work

Row | SMILES | loading of the carrier particles with active ingredient [1] | contact angle deviation from starting value on storage [2] | increase in the crystal thickness ([3]; a- to b-modification transformation) | average lamellar structures per subcellular unit ([3]; a-modification) | average lamellar structures per subcellular unit ([3]; after complete transformation into the b-modification)
1 | CC(C)Cc1ccc(C(C)C(=O)O)cc1 (centres unmarked) [ibuprofen] | up to 30 % by weight |  |  |  | 
2 | CCCCCCCCCCCCCCCCCC(=O)OCC(COC(=O)CCCCCCCCCCCCCCCCC)OC(=O)CCCCCCCCCCCCCCCCC [glycerol tristearate] |  | 40 ° | approximately 67% | 6 | 10.5
